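All cell lines were grown in 96-well plates and treated with compound for 48 hours. At the GI50, growth is halved.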 The source made the active and inactive calls. Rule as the data show it: active = GI50 up to about 1.1 µM and inactive = higher.
Columns and labels:
Test in all cases: DTP human tumour cell line panel, 48 h
786-0 = tested on: 786-0
SK-OV-3 = tested on: SK-OV-3
HOP-92 = tested on: HOP-92
MDA-MB-231 = tested on: MDA-MB-231
UACC-257 = tested on: UACC-257
K562 = tested on: K562
OVCAR-4 = tested on: OVCAR-4
OVCAR-5 = tested on: OVCAR-5
MOLT-4 = tested on: MOLT-4
RXF 393 = tested on: RXF 393
CAKI-1 = tested on: CAKI-1
BT-549 = tested on: BT-549
KM12 = tested on: KM12
NCI/ADR-RES = tested on: NCI/ADR-RES
UACC-62 = tested on: UACC-62
HCT-15 = tested on: HCT-15
SW-620 = tested on: SW-620
M14 = tested on: M14
SNB-75 = tested on: SNB-75
Malme-3M = tested on: Malme-3M
SK-MEL-5 = tested on: SK-MEL-5
SK-MEL-28 = tested on: SK-MEL-28
HCT-116 = tested on: HCT-116
SF-268 = tested on: SF-268
HT-29 = tested on: HT-29
SNB-19 = tested on: SNB-19
OVCAR-3 = tested on: OVCAR-3
HL-60 = tested on: HL-60
IGROV-1 = tested on: IGROV-1
MDA-MB-435 = tested on: MDA-MB-435
DU-145 = tested on: DU-145
EKVX = tested on: EKVX
T47D = tested on: T47D
NCI-H522 = tested on: NCI-H522
SF-539 = tested on: SF-539
A498 = tested on: A498
U-251 = tested on: U-251
LOX IMVI = tested on: LOX IMVI
PC-3 = tested on: PC-3
Hs-578T = tested on: Hs-578T
SK-MEL-2 = tested on: SK-MEL-2
HCC 2998 = tested on: HCC 2998
HOP-62 = tested on: HOP-62
MDA-N = tested on: MDA-N
SF-295 = tested on: SF-295
NCI-H460 = tested on: NCI-H460
A549 = tested on: A549
SR = tested on: SR
MCF7 = tested on: MCF7
UO-31 = tested on: UO-31
RPMI-8226 = tested on: RPMI-8226
COLO 205 = tested on: COLO 205
NCI-H23 = tested on: NCI-H23
CCRF-CEM = tested on: CCRF-CEM
TK-10 = tested on: TK-10
ACHN = tested on: ACHN
OVCAR-8 = tested on: OVCAR-8
SN12C = tested on: SN12C
NCI-H226 = tested on: NCI-H226

Compound: O=C1Nc2ccccc2/C1=N/N1C(=O)/C(=C/c2ccccc2S)N=C1c1ccccc1
- GI50 (786-0): 79.8 µM (inactive)
- GI50 (SK-OV-3): > 100 µM (inactive)
- GI50 (HOP-92): 77.6 µM (inactive)
- GI50 (MDA-MB-231): > 100 µM (inactive)
- GI50 (UACC-257): > 100 µM (inactive)
- GI50 (K562): 27.9 µM (inactive)
- GI50 (OVCAR-4): 27 µM (inactive)
- GI50 (OVCAR-5): > 100 µM (inactive)
- GI50 (MOLT-4): 19.5 µM (inactive)
- GI50 (RXF 393): 68.9 µM (inactive)
- GI50 (CAKI-1): 91.6 µM (inactive)
- GI50 (BT-549): 91 µM (inactive)
- GI50 (KM12): 66.4 µM (inactive)
- GI50 (NCI/ADR-RES): > 100 µM (inactive)
- GI50 (UACC-62): 90.6 µM (inactive)
- GI50 (HCT-15): 83 µM
- GI50 (SW-620): 71.1 µM (inactive)
- GI50 (M14): > 100 µM (inactive)
- GI50 (SNB-75): > 100 µM (inactive)
- GI50 (Malme-3M): > 100 µM (inactive)
- GI50 (SK-MEL-5): 81.8 µM (inactive)
- GI50 (SK-MEL-28): > 100 µM (inactive)
- GI50 (HCT-116): 99.8 µM (inactive)
- GI50 (SF-268): > 100 µM (inactive)
- GI50 (HT-29): > 100 µM (inactive)
- GI50 (SNB-19): > 100 µM (inactive)
- GI50 (OVCAR-3): 33.4 µM (inactive)
- GI50 (HL-60): 40.9 µM (inactive)
- GI50 (IGROV-1): 97.1 µM (inactive)
- GI50 (MDA-MB-435): 42.3 µM (inactive)
- GI50 (DU-145): > 100 µM (inactive)
- GI50 (EKVX): 48.3 µM (inactive)
- GI50 (T47D): 25.5 µM (inactive)
- GI50 (NCI-H522): 40.5 µM (inactive)
- GI50 (SF-539): > 100 µM (inactive)
- GI50 (A498): > 100 µM (inactive)
- GI50 (U-251): 67.6 µM (inactive)
- GI50 (LOX IMVI): 44.9 µM (inactive)
- GI50 (PC-3): 47.8 µM (inactive)
- GI50 (Hs-578T): > 100 µM (inactive)
- GI50 (SK-MEL-2): 42.4 µM (inactive)
- GI50 (HCC 2998): > 100 µM (inactive)
- GI50 (HOP-62): > 100 µM (inactive)
- GI50 (MDA-N): 82.4 µM (inactive)
- GI50 (SF-295): > 100 µM (inactive)
- GI50 (NCI-H460): 73.6 µM (inactive)
- GI50 (A549): 89.5 µM (inactive)
- GI50 (SR): 21.3 µM (inactive)
- GI50 (MCF7): 58.7 µM (inactive)
- GI50 (UO-31): 61.4 µM (inactive)
- GI50 (RPMI-8226): 12.6 µM (inactive)
- GI50 (COLO 205): 76 µM (inactive)
- GI50 (NCI-H23): 57.7 µM (inactive)
- GI50 (CCRF-CEM): 33.3 µM (inactive)
- GI50 (TK-10): > 100 µM (inactive)
- GI50 (ACHN): 92.3 µM (inactive)
- GI50 (OVCAR-8): 36.2 µM (inactive)
- GI50 (SN12C): > 100 µM (inactive)

Compound: CC[C@]1(c2ccc3c(c2)OCO3)C=[N+]([O-])O[C@H](OC2CCCC2(c2ccccc2)c2ccccc2)[C@@H]1OC(C)=O (some centres not stated)
- GI50 (786-0): 1.77 µM (inactive)
- GI50 (SK-OV-3): 3.01 µM (inactive)
- GI50 (HOP-92): 2.09 µM (inactive)
- GI50 (MDA-MB-231): 4.01 µM (inactive)
- GI50 (UACC-257): 2.58 µM (inactive)
- GI50 (K562): 2.36 µM (inactive)
- GI50 (OVCAR-4): 2.62 µM (inactive)
- GI50 (OVCAR-5): 3.83 µM (inactive)
- GI50 (MOLT-4): 2 µM (inactive)
- GI50 (RXF 393): 1.27 µM (inactive)
- GI50 (CAKI-1): 3.42 µM (inactive)
- GI50 (BT-549): 2.53 µM (inactive)
- GI50 (KM12): 1.77 µM (inactive)
- GI50 (NCI/ADR-RES): 1.92 µM (inactive)
- GI50 (UACC-62): 1.95 µM (inactive)
- GI50 (HCT-15): 2.26 µM
- GI50 (SW-620): 2.96 µM (inactive)
- GI50 (M14): 2.28 µM (inactive)
- GI50 (SNB-75): 2.16 µM (inactive)
- GI50 (SK-MEL-5): 1.56 µM (inactive)
- GI50 (SK-MEL-28): 2.12 µM (inactive)
- GI50 (HCT-116): 1.78 µM (inactive)
- GI50 (SF-268): 2.4 µM (inactive)
- GI50 (HT-29): 1.68 µM (inactive)
- GI50 (SNB-19): 3.22 µM (inactive)
- GI50 (OVCAR-3): 1.81 µM (inactive)
- GI50 (HL-60): 2.87 µM (inactive)
- GI50 (IGROV-1): 1.94 µM (inactive)
- GI50 (MDA-MB-435): 1.8 µM (inactive)
- GI50 (DU-145): 2.1 µM (inactive)
- GI50 (EKVX): 2.42 µM (inactive)
- GI50 (T47D): 2.09 µM (inactive)
- GI50 (NCI-H522): 1.77 µM (inactive)
- GI50 (SF-539): 4.22 µM (inactive)
- GI50 (A498): 1.27 µM (inactive)
- GI50 (U-251): 3.62 µM (inactive)
- GI50 (LOX IMVI): 2.09 µM (inactive)
- GI50 (NCI-H226): 4.3 µM (inactive)
- GI50 (PC-3): 3.24 µM (inactive)
- GI50 (Hs-578T): 3.16 µM (inactive)
- GI50 (SK-MEL-2): 2.38 µM (inactive)
- GI50 (HCC 2998): 1.85 µM (inactive)
- GI50 (HOP-62): 2.08 µM (inactive)
- GI50 (MDA-N): 3.83 µM (inactive)
- GI50 (SF-295): 1.32 µM (inactive)
- GI50 (NCI-H460): 2.24 µM (inactive)
- GI50 (A549): 2.63 µM (inactive)
- GI50 (SR): 2.22 µM (inactive)
- GI50 (MCF7): 2.47 µM (inactive)
- GI50 (UO-31): 2.05 µM (inactive)
- GI50 (COLO 205): 2.23 µM (inactive)
- GI50 (NCI-H23): 2.48 µM (inactive)
- GI50 (CCRF-CEM): 2.86 µM (inactive)
- GI50 (TK-10): 3.27 µM (inactive)
- GI50 (ACHN): 2.81 µM (inactive)
- GI50 (OVCAR-8): 1.95 µM (inactive)
- GI50 (SN12C): 3.15 µM (inactive)

Compound: CCCNC(C#N)c1ccc(OCCCCCCCCCCOc2ccc(C(C#N)NCCC)cc2)cc1 (configuration not stated)
- GI50 (786-0): > 100 µM (inactive)
- GI50 (SK-OV-3): 64 µM (inactive)
- GI50 (HOP-92): 32.4 µM (inactive)
- GI50 (MDA-MB-231): > 100 µM (inactive)
- GI50 (UACC-257): 48.5 µM (inactive)
- GI50 (K562): 23.6 µM (inactive)
- GI50 (OVCAR-4): 34.5 µM (inactive)
- GI50 (OVCAR-5): 69.8 µM (inactive)
- GI50 (MOLT-4): 17.1 µM (inactive)
- GI50 (RXF 393): 23.9 µM (inactive)
- GI50 (BT-549): 75 µM (inactive)
- GI50 (KM12): 64.7 µM (inactive)
- GI50 (NCI/ADR-RES): 56.8 µM (inactive)
- GI50 (UACC-62): 61.2 µM (inactive)
- GI50 (HCT-15): 47.3 µM
- GI50 (SW-620): 41.3 µM (inactive)
- GI50 (M14): 40.4 µM (inactive)
- GI50 (SNB-75): 32.8 µM (inactive)
- GI50 (Malme-3M): 64 µM (inactive)
- GI50 (SK-MEL-5): 33.3 µM (inactive)
- GI50 (SK-MEL-28): > 100 µM (inactive)
- GI50 (HCT-116): 31.9 µM (inactive)
- GI50 (SF-268): 61.8 µM (inactive)
- GI50 (HT-29): 51.1 µM (inactive)
- GI50 (SNB-19): 33.2 µM (inactive)
- GI50 (OVCAR-3): 30.5 µM (inactive)
- GI50 (HL-60): 17.3 µM (inactive)
- GI50 (IGROV-1): 54.6 µM (inactive)
- GI50 (MDA-MB-435): 46.3 µM (inactive)
- GI50 (DU-145): 49 µM (inactive)
- GI50 (EKVX): 60.5 µM (inactive)
- GI50 (T47D): 64 µM (inactive)
- GI50 (NCI-H522): 72.6 µM (inactive)
- GI50 (SF-539): 55.2 µM (inactive)
- GI50 (A498): 23.1 µM (inactive)
- GI50 (U-251): 20.9 µM (inactive)
- GI50 (LOX IMVI): 14.8 µM (inactive)
- GI50 (NCI-H226): 30.8 µM (inactive)
- GI50 (PC-3): 30.8 µM (inactive)
- GI50 (Hs-578T): 37.7 µM (inactive)
- GI50 (SK-MEL-2): 38.5 µM (inactive)
- GI50 (HCC 2998): > 100 µM (inactive)
- GI50 (HOP-62): 42.8 µM (inactive)
- GI50 (MDA-N): 29.4 µM (inactive)
- GI50 (SF-295): 31.3 µM (inactive)
- GI50 (NCI-H460): 50.5 µM (inactive)
- GI50 (A549): 47 µM (inactive)
- GI50 (SR): 25.6 µM (inactive)
- GI50 (MCF7): 35.2 µM (inactive)
- GI50 (UO-31): 51.8 µM (inactive)
- GI50 (COLO 205): > 100 µM (inactive)
- GI50 (NCI-H23): 51.3 µM (inactive)
- GI50 (CCRF-CEM): 15.3 µM (inactive)
- GI50 (TK-10): 29.2 µM (inactive)
- GI50 (ACHN): 83.9 µM (inactive)
- GI50 (OVCAR-8): 30.9 µM (inactive)
- GI50 (SN12C): 68.9 µM (inactive)

Source: ChEMBL document CHEMBL1201862, “PubChem BioAssay data set” (2004)
